Data: US8227616B2, “Cyanopyridine antibacterial agents and methods of use thereof” (Wisconsin Alumni Research Foundation, priority 2006, dated 2012)
In brackets after ≈: the same amount, converted by molar mass.

Tests used:
S. aureus ATCC 10390 [1] = test: Kirby-Bauer disk diffusion assay on compound spots from cleaved macroarray; format: cell-based, Staphylococcus aureus; conditions: loadings 30 μg/spot, 18 h incubation
Procedure: While the heterocyclic libraries were being synthesized, the chalcone macroarrays were analyzed using various direct assay techniques such as the Kirby-Bauer disk diffusion assay (FIG. 2E). Bauer, A. W.; Kirby, […].; Turck, M. Technical Bulletin of the Registry of Medical Technologists 1966, 36, 49-52. For this assay, the macroarray members are punched out from the membrane, cleaved from the support with TFA vapor, neutralized with ammonia vapor, and then placed on an agar bed inoculated with S. aureus. After incubating overnight, different diameters of zones of inhibition are measured as a factor of potency as well as solubility in the medium. Ammonia vapor neutralization was key in the disk diffusion assay, otherwise residual TFA vapor created a false positive signature. However, in this method, macroarrays have to be made in triplicate one for a replicate and one for compound characterization. We first evaluated test chalcone macroarrays (3) in antibacterial assays against S. aureus. Because the macroarrays were prepared on cellulose filter paper, we had convenient access to the compounds in disk form for standard disk diffusion assays. Compound spots were punched out of the macroarrays, subjected to vapor phase cleavage with acid (TFA), and neutralized (NH3) to afford disks containing ca. 30 μg of adsorbed compound [8]. These disks were manually placed on lawns of S. aureus, and zones of inhibition were measured after an 18 h incubation period. […] However, this antibacterial assay format had drawbacks: (1) the entire sample of compound was consumed during the assay, and thus replicate arrays needed to be synthesized to confirm activity, and (2) manipulating large numbers of compound disks was relatively labor intensive. Compound spots were cleaved with TFA and neutralized with NH3 as described herein. […] Compound spots were placed onto the agar, the plate was incubated at 37° C. for 18 h, and the diameters of the zones of inhibition were measured. […] Compound spots were subjected to the TFA cleavage conditions described above. The spots were next subjected to NH3 vapor to neutralize any remaining TFA. […] Vials containing the spots (or intact macroarrays) were placed inside a small evaporating dish, and this was placed into the NH4OH solution. The Pyrex dish was covered, and NH3 vapor was allowed to slowly diffuse into the vials. After 1 h, the vials were removed from the NH3 chamber, and the spots were allowed to stand open in a fume hood for at least 15 min to vent prior to analysis in the following assays. This afforded dry, paper disks containing adsorbed compound. […] The plates were removed, and the diameters of the zones of inhibition were measured in mm using a ruler (see FIG. 1A).

S. aureus ATCC 10390 [2] = test: Agar overlay TTC assay; format: cell-based, Staphylococcus aureus; conditions: macroarray copies, 15 mL agar
Text: To take advantage of the spatially-addressed nature of the macroarray format, an agar overlay assay was employed that utilizes TTC (triphenyl tetrazolium chloride) as a visualization agent (FIG. 2[…].; Lu, A. T.; Solas, D. W.; Gore, […].; Coffin, […].; Wang, […].; Look, G. C.; Campbell, […]. Antimicrob. Agents Chemother. 1998, 1447-1453. Unfortunately, during macroarray synthesis the planarity of the support is not fully maintained, and small wrinkles develop in this particular assay. This problem was solved by using an adaptation of the common Western Blot technique to copy the macroarray members from the support to fresh wrinkle-free sheets while maintaining the spatially-addressed nature. This transfer can be completed in 90 seconds and four copies can be made at a time, however to date, it is applicable only for smaller macroarrays (6 cm×6 cm, 16 spots). The full macroarray was easily divided into these dimensions. The copies allowed for replicates to be made, and the original, which cannot be used in the assay, is used to validate the compounds by LCMS. As an added feature, the sensitivity of the assay was tuned by simply changing the amount of agar applied to the array. The copies generated in the assay can also be easily used to screened against multiple organisms. […] This assay format also took advantage of the spatially addressed nature of the arrays (FIG. 2C). […]

[3] = system: S. epidermidis ATCC 12228; test: MIC determination, species selectivity; format: cell-based; conditions: Staphylococcus epidermidis, ATCC12228; authentic sample, only trans isomers of chalcones; error reflects step size
Procedure: (§1) Each compound from Table 3 was tested for inhibitory activity at 2.5, 5, 7.5, 10, 15, 20, 25, and 30 μM in the susceptible overlaid strains: B. subtilis ATCC 6633, S. epidermidis ATCC 12228, and K. pneumoniae ATCC 4352. MIC assays were run in quadruplicate as described above (with shaking).

[4] = system: B. subtilis subsp. spizizenii ATCC 6633; test: MIC determination, species selectivity; format: cell-based; conditions: Bacillus subtilis, ATCC6633; authentic sample, only trans isomers of chalcones; error reflects step size
Procedure: as §1

Q: `O=C(/C=C/c1cc(C(F)(F)F)cc(C(F)(F)F)c1)c1cccc(O)c1` [Compound 4Bv, 3′-hydroxy-3,5-bis(trifluoromethyl)chalcone] was tested. Which Zones of inhibition (S. aureus ATCC 10390 [1]) did it give?
A: 22 mm

Q: And the “relative activity in agar overlay TTC assay” value (S. aureus ATCC 10390 [2])?
A: most active

Q: And the MIC [3]?
A: 3.8 ± 1.2 µM (≈ 1.37 µg/mL)

Q: What about the MIC [4] of the same molecule?
A: 8.8 ± 1.2 µM (≈ 3.17 µg/mL)
